This is an account of results in patent US5047412A, “Alkene derivatives” (Imperial Chemical Industries PLC, priority 1985, dated 1991).

Experiment [1] deals with rabbit aortal strip (TXA2 antagonism). The experiment is described as follows: rabbit aortal strip model (test (a)). It counts as cell-based. To be noted: procedure (a), agonist U46619. The procedure: (a) the rabbit aortal strip model devised by Piper and Vane (Nature, 1969, 223, 29-35) using as agonist a freshly prepared sample of TXA2, generated by addition of arachidonic acid (25 μg) to citrated, platelet rich rabbit plasma (250 μl) and allowing the mixture to aggregate fully over 90 seconds before use; alternatively the TXA2 mimetic agent known as U46619 (described by R. L. Jones et alia, in "Chemistry, Biochemistry and Pharmacological Activity of Prostanoids" edited by S. M. Roberts and F. Scheinmann, at page 211, Pergamon Press, 1979) may be used as the agonist;

Experiment [2] has as its target T1, blood platelet aggregation (TXA2 antagonism) (Homo sapiens, UniProt P21731).
T1 construct: aggregating human, citrated platelet-rich plasma; endogenous in cells; host or cells: human platelets in citrated platelet-rich plasma
T1 sequence (P21731 1-343): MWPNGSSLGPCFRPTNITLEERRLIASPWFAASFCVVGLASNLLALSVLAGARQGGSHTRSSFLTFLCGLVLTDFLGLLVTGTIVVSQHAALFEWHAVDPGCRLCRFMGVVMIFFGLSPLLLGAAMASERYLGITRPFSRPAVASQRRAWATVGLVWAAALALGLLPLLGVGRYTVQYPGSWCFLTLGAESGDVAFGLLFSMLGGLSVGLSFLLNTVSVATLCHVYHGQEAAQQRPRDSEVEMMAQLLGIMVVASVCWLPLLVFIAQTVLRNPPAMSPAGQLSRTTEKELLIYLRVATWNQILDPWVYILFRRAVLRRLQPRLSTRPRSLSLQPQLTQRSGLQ
As to the kind of experiment: blood platelet aggregation test (test (b)). The class given is cell-based. The following applies: procedure (b), human citrated platelet-rich plasma, U46619. The source says:
(b) a blood platelet aggregation test based on that described by Born (Nature, 1962, 194, 927-929) and involving:
(i) aggregating human, citrated platelet-rich plasma by addition of the TXA2 mimetic agent U46619 so that a dose-response curve is generated;
(ii) generating a dose-response curve for U46619 stimulated platelet aggregation in the presence of increasing amounts of test compound (generally in the range, 10^-5 M to 10^-10 M); and
(iii) calculating a Kb value indicating potency of TXA2 antagonism for the test compound, averaged over several concentrations, from the calculated 50% response value for U46619 aggregation in the presence and absence of test compound; and […]

As usually defined, the pA2 is a measure of antagonist potency on a negative log scale. Low readings indicate lower antagonist potency, high ones higher antagonist potency. A word on the Kb: it is the equilibrium dissociation constant of an antagonist, usually derived from a functional assay. A lower Kb goes with a more potent antagonist.

In the case of `O=C(O)CC/C=C\C[C@@H]1CO[C@H](/C=C/c2ccccc2)O[C@@H]1c1ccccc1O` (relative stereo) [Example 1, 4(Z)-6-([2,4,5-cis]-4-o-hydroxyphenyl-2(E)-styryl-1,3-dioxan-5-yl)hexenoicacid], the pA2 in experiment [1] is listed as 8.9. Further, in experiment [2], the Kb worked out at 12 nM.
